The target of one assay is human orexin-2 receptor (Homo sapiens (Human), UniProt O43614). Nature of the assay: hOX2R FLIPR Ca2+ flux assay. Type of assay: cell-based. Particulars: CHO cells expressing human orexin-2 receptor; agonist 70 pM Ala-6,12 orexin-A. As for the experimental part:
In a typical experiment the OX1 and OX2 receptor antagonistic activity of the compounds of the present invention was determined in accordance with the following experimental method. For intracellular calcium measurements, Chinese hamster ovary (CHO) cells expressing the rat orexin-1 receptor or the human orexin-2 receptor, are grown in Iscove's modified DMEM containing 2 mM L-glutamine, […], 1% hypoxanthine-thymidine supplement, 100 U/ml penicillin, 100 μg/ml streptomycin and 10% heat-inactivated fetal calf serum (FCS). The cells are seeded at 20,000 cells/well into Becton-Dickinson black 384-well clear bottom sterile plates coated with poly-D-lysine. All reagents were from GIBCO-Invitrogen Corp. The seeded plates are incubated overnight at 37° C. and 5% CO2. Ala-6,12 human orexin-A as the agonist is prepared as a 1 mM stock solution in 1% bovine serum albumin (BSA) and diluted in assay buffer (HBSS containing 20 mM HEPES, 0.1% BSA and 2.5 mM probenecid, pH7.4) for use in the assay at a final concentration of 70 pM. Test compounds are prepared as 10 mM stock solution in DMSO, then diluted in 384-well plates, first in DMSO, then assay buffer. On the day of the assay, cells are washed 3 times with 100 μl assay buffer and then incubated for 60 min (37° C., 5% CO2) in 60 μl assay buffer containing […] Fluo-4AM ester, 0.02% pluronic acid, and 1% BSA. The dye loading solution is then aspirated and cells are washed 3 times with 100 μl assay buffer. 30 μl of that same buffer is left in each well. Within the Fluorescent Imaging Plate Reader (FLIPR, Molecular Devices), test compounds are added to the plate in a volume of 25 μl, incubated for 5 min and finally 25 μl of agonist is added. Fluorescence is measured for each well at 1 second intervals for 5 minutes and the height of each fluorescence peak is compared to the height of the fluorescence peak induced by 70 pM Ala-6,12 orexin-A with buffer in place of antagonist. For each antagonist, IC50 value (the concentration of compound needed to inhibit 50% of the agonist response) is determined. Alternatively, compound potency can be assessed by a radioligand binding assay (described in Bergman et. al. Bioorg. Med. Chem. Lett. 2008, 18, 1425-1430) in which the inhibition constant (Ki) is determined in membranes prepared from CHO cells expressing either the OX1 or OX2 receptor. The intrinsic orexin receptor antagonist activity of a compound which may be used in the present invention may be determined by these assays.
On the technique in general: A change in cytosolic calcium serves as a functional read-out for many receptors and channels.

A further assay addresses hOX1R (Homo sapiens, UniProt O43613). Nature of the assay: hOX1R FLIPR Ca2+ flux assay. It counts as cell-based.
The mark [1] stands for this setting: CHO cells expressing orexin-1 receptor, agonist 70 pM Ala-6,12 orexin-A, read-out: hOX1R FLIPR IC50.

Where two headings read alike, the source gives them in different places.

For orientation: IC50 means the concentration at which inhibition is half-maximal.

human orexin-2 receptor, sequence (O43614 whole entry): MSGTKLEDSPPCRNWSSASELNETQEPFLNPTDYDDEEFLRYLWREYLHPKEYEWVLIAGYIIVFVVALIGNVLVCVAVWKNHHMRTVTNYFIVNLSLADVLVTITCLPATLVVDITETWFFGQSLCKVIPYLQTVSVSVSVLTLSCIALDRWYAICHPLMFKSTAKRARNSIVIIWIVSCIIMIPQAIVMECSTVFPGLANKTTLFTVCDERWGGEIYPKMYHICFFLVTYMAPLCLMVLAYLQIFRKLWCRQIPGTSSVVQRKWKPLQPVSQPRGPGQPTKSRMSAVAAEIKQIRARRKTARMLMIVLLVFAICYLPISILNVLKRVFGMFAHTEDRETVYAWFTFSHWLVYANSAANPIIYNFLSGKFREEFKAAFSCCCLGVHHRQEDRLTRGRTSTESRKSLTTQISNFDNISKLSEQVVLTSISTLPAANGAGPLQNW

As for `Cc1oc(C[C@H]2CCCCN2C(=O)c2ccccc2-n2nccn2)nc1C(C)(C)O` [Example 1, (R)-(2-(2H-1,2,3-triazol-2-yl)phenyl)(2-((4-(2-hydroxypropan-2-yl)-5-methyloxazol-2-yl)methyl)piperidin-1-yl)methanone], the figures for the IC50 at human orexin-2 receptor and at hOX1R (setting [1]) were 14 nM and 18 nM, respectively.

Turning to `Cc1oc(C[C@H]2CCCCN2C(=O)c2ccccc2C2CC2)nc1C(C)(C)O` [Example 3, (R)-(2-cyclopropylphenyl)(2-((4-(2-hydroxypropan-2-yl)-5-methyloxazol-2-yl)methyl)piperidin-1-yl)methanone], the IC50 stood at 17 nM at human orexin-2 receptor and 212 nM on hOX1R.

Consider `Cc1oc(C[C@H]2CCCCN2C(=O)c2cccnc2OCC(F)(F)F)nc1C(C)(C)O` [Example 5, (R)-(2-((4-(2-hydroxypropan-2-yl)-5-methyloxazol-2-yl)methyl)piperidin-1-yl)(2-(2,2,2-trifluoroethoxy)pyridin-3-yl)methanone], for which the IC50 on human orexin-2 receptor is 19 nM; on hOX1R (setting [1]), 162 nM.

`Cc1oc(C[C@H]2CCCCN2C(=O)c2ccccc2CC(F)F)nc1C(C)(C)O` [Example 12, (R)-(2-(2,2-difluoroethyl)phenyl)(2-((4-(2-hydroxypropan-2-yl)-5-methyloxazol-2-yl)methyl)piperidin-1-yl)methanone]: the figures for the IC50 at human orexin-2 receptor and at hOX1R (setting [1]) were 98 nM and 2180 nM, respectively.

As for `Cc1oc(C[C@H]2CCCCN2C(=O)c2ccccc2-n2ncnn2)nc1C(C)(C)O` [Example 28, (R)-(2-(2H-tetrazol-2-yl)phenyl)(2-((4-(2-hydroxypropan-2-yl)-5-methyloxazol-2-yl)methyl)piperidin-1-yl)methanone], the IC50 on human orexin-2 receptor stood at 152 nM; at hOX1R (setting [1]), 486 nM.

Consider `Cc1oc(C[C@H]2CCCCN2C(=O)c2ccccc2OC(F)F)nc1C(C)(C)O` [Example 15, (R)-(2-(difluoromethoxy)phenyl)(2-((4-(2-hydroxypropan-2-yl)-5-methyloxazol-2-yl)methyl)piperidin-1-yl)methanone], for which the figures for the IC50 on human orexin-2 receptor and on hOX1R (setting [1]) were 98 nM and 1090 nM, respectively.

As for `Cc1oc(C[C@H]2CCCCN2C(=O)c2ccccc2N2CCCC2)nc1C(C)(C)O` [Example 7, (R)-(2-((4-(2-hydroxypropan-2-yl)-5-methyloxazol-2-yl)methyl)piperidin-1-yl)(2-(pyrrolidin-1-yl)phenyl)methanone], the IC50 at human orexin-2 receptor is 51 nM; on hOX1R (setting [1]), 67 nM.

In the case of `Cc1oc(C[C@H]2CCCCN2C(=O)c2cccnc2OC(C)C)nc1C(C)(C)O` [Example 6, (R)-(2-((4-(2-hydroxypropan-2-yl)-5-methyloxazol-2-yl)methyl)piperidin-1-yl)(2-isopropoxypyridin-3-yl)methanone], the half-inhibitory concentration (IC50) at human orexin-2 receptor came to 36 nM; on hOX1R (setting [1]) it was 223 nM.

With `Cc1ccc(-n2nccn2)c(C(=O)N2CCCC[C@@H]2Cc2nc(C(C)(C)O)c(C)o2)c1` [Example 30, (R)-(2-((4-(2-hydroxypropan-2-yl)-5-methyloxazol-2-yl)methyl)piperidin-1-yl)(5-methyl-2-(2H-1,2,3-triazol-2-yl)phenyl)methanone], the IC50 amounted to 46 nM at human orexin-2 receptor and 50 nM at hOX1R (setting [1]).

`CCCc1ccccc1C(=O)N1CCCC[C@@H]1Cc1nc(C(C)(C)O)c(C)o1` [Example 29, (R)-(2-((4-(2-hydroxypropan-2-yl)-5-methyloxazol-2-yl)methyl)piperidin-1-yl)(2-propylphenyl)methanone]: the IC50 was 106 nM at human orexin-2 receptor and 794 nM on hOX1R (setting [1]).

Turning to `Cc1oc(C[C@H]2CCCCN2C(=O)c2cccnc2-n2cccn2)nc1C(C)(C)O` [Example 13, (R)-(2-(1H-pyrazol-1-yl)pyridin-3-yl)(2-((4-(2-hydroxypropan-2-yl)-5-methyloxazol-2-yl)methyl)piperidin-1-yl)methanone], the values for the IC50 on human orexin-2 receptor and on hOX1R (setting [1]) were 24 nM and 51 nM, respectively.

Consider `Cc1oc(C[C@H]2CCCCN2C(=O)c2ccccc2-n2cccn2)nc1C(C)(C)O` [Example 10, (R)-(2-(1H-pyrazol-1-yl)phenyl)(2-((4-(2-hydroxypropan-2-yl)-5-methyloxazol-2-yl)methyl)piperidin-1-yl)methanone], for which the results for the half-inhibitory concentration (IC50) at human orexin-2 receptor and at hOX1R (setting [1]) were 51 nM and 129 nM, respectively.

Consider `Cc1oc(C[C@H]2CCCCN2C(=O)c2cccnc2CC(F)(F)F)nc1C(C)(C)O` [Example 11, (R)-(2-((4-(2-hydroxypropan-2-yl)-5-methyloxazol-2-yl)methyl)piperidin-1-yl)(2-(2,2,2-trifluoroethyl)pyridin-3-yl)methanone], for which the IC50 on hOX1R (setting [1]) is above 10000 nM.

Turning to `Cc1oc(C[C@H]2CCCCN2C(=O)c2ccc(F)cc2-n2nccn2)nc1C(C)(C)O` [Example 4, (R)-(4-fluoro-2-(2H-1,2,3-triazol-2-yl)phenyl)(2-((4-(2-hydroxypropan-2-yl)-5-methyloxazol-2-yl)methyl)piperidin-1-yl)methanone], the values for the IC50 at human orexin-2 receptor and on hOX1R (setting [1]) were 25 nM and 39 nM, respectively.

Regarding `Cc1oc(C[C@H]2CCCCN2C(=O)c2ccccc2C2CCC2)nc1C(C)(C)O` [Example 24, (R)-(2-cyclobutylphenyl)(2-((4-(2-hydroxypropan-2-yl)-5-methyloxazol-2-yl)methyl)piperidin-1-yl)methanone], the IC50 came out at 114 nM on human orexin-2 receptor and 184 nM on hOX1R (setting [1]).

As for `Cc1oc(C[C@H]2CCCCN2C(=O)c2ncccc2-n2nccn2)nc1C(C)(C)O` [Example 21, (R)-(3-(2H-1,2,3-triazol-2-yl)pyridin-2-yl)(2-((4-(2-hydroxypropan-2-yl)-5-methyloxazol-2-yl)methyl)piperidin-1-yl)methanone], the IC50 turned out to be 225 nM on human orexin-2 receptor and 1850 nM at hOX1R (setting [1]).

For `Cc1oc(C[C@H]2CCCCN2C(=O)c2cccnc2-c2ccccc2)nc1C(C)(C)O` [Example 14, (R)-(2-((4-(2-hydroxypropan-2-yl)-5-methyloxazol-2-yl)methyl)piperidin-1-yl)(2-phenylpyridin-3-yl)methanone], the figures for the IC50 on human orexin-2 receptor and at hOX1R (setting [1]) were 38 nM and 80 nM, respectively.

With `Cc1oc(C[C@H]2CCCCN2C(=O)c2nccnc2-c2ccccn2)nc1C(C)(C)O` [Example 22, (R)-(2-((4-(2-hydroxypropan-2-yl)-5-methyloxazol-2-yl)methyl)piperidin-1-yl)(3-(pyridin-2-yl)pyrazin-2-yl)methanone], the results for the IC50 at human orexin-2 receptor and on hOX1R (setting [1]) were 558 nM and 2930 nM, respectively.

Turning to `Cc1oc(C[C@H]2CCCCN2C(=O)c2ccccc2C2CC2(F)F)nc1C(C)(C)O` (stereo partly drawn) [Example 27, (2-(2,2-difluorocyclopropyl)phenyl)((R)-2-((4-(2-hydroxypropan-2-yl)-5-methyloxazol-2-yl)methyl)piperidin-1-yl)methanone], the values for the concentration for half-maximal inhibition (IC50) at human orexin-2 receptor and at hOX1R (setting [1]) were 38 nM and 473 nM, respectively.

As to `Cc1oc(C[C@H]2CCCCN2C(=O)c2nccnc2-n2cccn2)nc1C(C)(C)O` [Example 26, (R)-(3-(1H-pyrazol-1-yl)pyrazin-2-yl)(2-((4-(2-hydroxypropan-2-yl)-5-methyloxazol-2-yl)methyl)piperidin-1-yl)methanone], the figures for the IC50 at human orexin-2 receptor and on hOX1R (setting [1]) were 186 nM and 1410 nM, respectively.

`Cc1oc(C[C@H]2CCCCN2C(=O)c2ccccc2OCC(F)F)nc1C(C)(C)O` [Example 20, (R)-(2-(2,2-difluoroethoxy)phenyl)(2-((4-(2-hydroxypropan-2-yl)-5-methyloxazol-2-yl)methyl)piperidin-1-yl)methanone]: the values for the IC50 at human orexin-2 receptor and on hOX1R (setting [1]) were 112 nM and 690 nM, respectively.

As to `CCOc1ncccc1C(=O)N1CCCC[C@@H]1Cc1nc(C(C)(C)O)c(C)o1` [Example 2, (R)-(2-ethoxypyridin-3-yl)(2-((4-(2-hydroxypropan-2-yl)-5-methyloxazol-2-yl)methyl)piperidin-1-yl)methanone], the IC50 on human orexin-2 receptor was found to be 20 nM; at hOX1R (setting [1]) it was 152 nM.

`Cc1oc(C[C@H]2CCCCN2C(=O)c2nccnc2N2CCCC2)nc1C(C)(C)O` [Example 23, (R)-(2-((4-(2-hydroxypropan-2-yl)-5-methyloxazol-2-yl)methyl)piperidin-1-yl)(3-(pyrrolidin-1-yl)pyrazin-2-yl)methanone]: the IC50 at human orexin-2 receptor and at hOX1R (setting [1]) was above 10000 nM throughout.

Turning to `Cc1oc(C[C@H]2CCCCN2C(=O)c2ccccc2CC(F)(F)F)nc1C(C)(C)O` [Example 18, (R)-(2-((4-(2-hydroxypropan-2-yl)-5-methyloxazol-2-yl)methyl)piperidin-1-yl)(2-(2,2,2-trifluoroethyl)phenyl)-methanone], the results for the IC50 on human orexin-2 receptor and at hOX1R (setting [1]) were 118 nM and 1690 nM, respectively.

The values above are taken from patent US9920038B2, “Methyl oxazole orexin receptor antagonists” (MERCK SHARP & DOHME CORP., priority 2014, dated 2018).
